According to paper PMC7253457, “Nitrite modulates aminoglycoside tolerance by inhibiting cytochrome heme-copper oxidase in bacteria” (Communications Biology, 2020):

Experiments:
[1] = molecular target: T1, S. oneidensis cbb3 (heme-copper oxidase cbb3) (Shewanella oneidensis, UniProt Q8EEL5); settings: read-out: IC50(NO2^-); 5 mM NADH as electron donor; ~70 μM O2; membranes of delta-cyd strain
T1 construct: gene ccoN
Description: oxygen consumption of membranes, O2 electrode on S. oneidensis cbb3 (heme-copper oxidase cbb3)

[2] = molecular target: T2, bd (bd-type quinol oxidase) (Shewanella oneidensis, UniProt Q8EC58); settings: read-out: IC50(NO2^-); 5 mM NADH as electron donor; ~70 μM O2; membranes of delta-cco strain
T2 construct: gene cydA
Description: oxygen consumption of membranes, O2 electrode on bd (bd-type quinol oxidase)

[3] = molecular target: T3, S. aureus aa3 (cytochrome aa3 oxidase) (Staphylococcus aureus, UniProt Q7A699); assay: biochemical
T3 construct: gene qoxB
Description: oxygen consumption of membranes, O2 electrode on S. aureus aa3 (cytochrome aa3 oxidase)

[4] = molecular target: T4, E. coli bo3 (cytochrome bo3 oxidase) (Escherichia coli, UniProt P0ABI8); assay: biochemical
T4 construct: gene cyoB
Description: oxygen consumption of membranes, O2 electrode on E. coli bo3 (cytochrome bo3 oxidase)

T3 sequence (Q7A699 whole entry): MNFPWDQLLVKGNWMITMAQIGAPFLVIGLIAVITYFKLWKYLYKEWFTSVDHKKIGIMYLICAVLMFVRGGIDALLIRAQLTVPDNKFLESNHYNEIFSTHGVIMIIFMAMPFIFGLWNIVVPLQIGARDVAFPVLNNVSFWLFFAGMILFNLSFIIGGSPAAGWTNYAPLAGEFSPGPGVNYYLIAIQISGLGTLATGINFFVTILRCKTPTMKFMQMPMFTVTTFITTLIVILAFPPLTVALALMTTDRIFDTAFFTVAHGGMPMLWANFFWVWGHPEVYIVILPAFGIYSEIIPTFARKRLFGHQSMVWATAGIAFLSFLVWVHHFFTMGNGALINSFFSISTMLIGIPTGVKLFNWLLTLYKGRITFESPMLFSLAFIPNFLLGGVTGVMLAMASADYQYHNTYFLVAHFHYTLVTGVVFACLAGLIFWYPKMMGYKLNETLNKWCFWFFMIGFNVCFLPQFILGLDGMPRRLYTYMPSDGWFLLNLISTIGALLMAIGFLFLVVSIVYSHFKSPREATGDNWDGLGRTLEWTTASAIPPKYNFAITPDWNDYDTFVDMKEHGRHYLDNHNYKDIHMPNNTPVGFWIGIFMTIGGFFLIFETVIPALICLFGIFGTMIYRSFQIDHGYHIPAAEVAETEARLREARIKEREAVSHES
T3 sequence (Q7A698 20-366 partner): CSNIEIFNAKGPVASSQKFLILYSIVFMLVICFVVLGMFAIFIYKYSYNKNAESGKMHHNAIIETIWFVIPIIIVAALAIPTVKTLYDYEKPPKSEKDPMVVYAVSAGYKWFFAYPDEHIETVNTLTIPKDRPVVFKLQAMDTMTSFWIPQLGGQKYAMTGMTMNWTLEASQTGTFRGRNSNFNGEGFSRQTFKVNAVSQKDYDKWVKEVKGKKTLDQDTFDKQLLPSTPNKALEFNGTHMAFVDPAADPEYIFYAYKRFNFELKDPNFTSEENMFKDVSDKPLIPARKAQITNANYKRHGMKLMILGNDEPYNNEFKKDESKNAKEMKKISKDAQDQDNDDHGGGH
T3 sequence (Q7A6A0 whole entry partner): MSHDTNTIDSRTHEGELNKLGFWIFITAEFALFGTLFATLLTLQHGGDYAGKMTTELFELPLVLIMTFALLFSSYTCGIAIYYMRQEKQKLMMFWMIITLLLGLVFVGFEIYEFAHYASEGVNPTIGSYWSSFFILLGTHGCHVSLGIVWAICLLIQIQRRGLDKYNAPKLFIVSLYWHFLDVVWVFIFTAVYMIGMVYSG
T3 sequence (Q7A6A1 whole entry partner): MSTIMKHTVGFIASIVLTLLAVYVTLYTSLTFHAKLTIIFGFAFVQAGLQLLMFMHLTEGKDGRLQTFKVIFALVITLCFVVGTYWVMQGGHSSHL
T2 sequence (Q8EC58 1-518): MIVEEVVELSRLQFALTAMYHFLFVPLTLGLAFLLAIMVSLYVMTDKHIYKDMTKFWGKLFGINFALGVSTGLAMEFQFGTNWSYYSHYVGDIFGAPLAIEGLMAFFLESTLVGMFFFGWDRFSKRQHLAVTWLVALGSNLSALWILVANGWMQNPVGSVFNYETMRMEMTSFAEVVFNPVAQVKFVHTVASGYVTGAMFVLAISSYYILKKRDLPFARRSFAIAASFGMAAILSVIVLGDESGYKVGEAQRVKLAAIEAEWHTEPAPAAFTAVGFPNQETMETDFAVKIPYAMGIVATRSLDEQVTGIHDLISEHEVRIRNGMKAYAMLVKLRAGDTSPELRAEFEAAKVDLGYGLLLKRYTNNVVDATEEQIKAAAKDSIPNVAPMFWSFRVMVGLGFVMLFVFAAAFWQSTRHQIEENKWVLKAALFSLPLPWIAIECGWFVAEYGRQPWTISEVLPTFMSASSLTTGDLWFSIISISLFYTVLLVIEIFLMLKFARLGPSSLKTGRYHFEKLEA
T2 sequence (Q8EC59 1-379 partner): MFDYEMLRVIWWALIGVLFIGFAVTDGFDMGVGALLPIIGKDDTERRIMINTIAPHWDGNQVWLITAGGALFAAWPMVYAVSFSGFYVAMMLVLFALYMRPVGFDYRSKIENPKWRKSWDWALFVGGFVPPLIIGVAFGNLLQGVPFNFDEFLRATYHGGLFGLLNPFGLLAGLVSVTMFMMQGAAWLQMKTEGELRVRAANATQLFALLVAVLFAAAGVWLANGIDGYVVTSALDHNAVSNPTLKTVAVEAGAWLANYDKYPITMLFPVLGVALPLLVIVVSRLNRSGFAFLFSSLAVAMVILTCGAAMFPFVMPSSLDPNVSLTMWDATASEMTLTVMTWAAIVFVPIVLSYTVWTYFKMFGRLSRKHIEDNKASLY
T1 sequence (Q8EEL5 1-478): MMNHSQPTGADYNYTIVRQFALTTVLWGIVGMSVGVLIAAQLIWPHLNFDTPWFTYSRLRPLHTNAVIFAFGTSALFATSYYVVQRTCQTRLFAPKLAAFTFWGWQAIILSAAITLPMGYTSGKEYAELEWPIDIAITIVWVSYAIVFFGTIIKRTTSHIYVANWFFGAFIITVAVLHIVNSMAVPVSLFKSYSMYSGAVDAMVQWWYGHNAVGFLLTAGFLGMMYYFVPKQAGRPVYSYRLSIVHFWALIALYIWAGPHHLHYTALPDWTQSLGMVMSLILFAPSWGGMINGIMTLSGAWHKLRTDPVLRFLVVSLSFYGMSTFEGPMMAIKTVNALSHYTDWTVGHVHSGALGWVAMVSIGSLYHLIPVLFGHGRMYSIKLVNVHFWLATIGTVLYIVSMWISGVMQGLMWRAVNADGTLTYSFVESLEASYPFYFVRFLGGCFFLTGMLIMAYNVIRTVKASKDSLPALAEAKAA
T1 sequence (Q8EEL6 1-208 partner): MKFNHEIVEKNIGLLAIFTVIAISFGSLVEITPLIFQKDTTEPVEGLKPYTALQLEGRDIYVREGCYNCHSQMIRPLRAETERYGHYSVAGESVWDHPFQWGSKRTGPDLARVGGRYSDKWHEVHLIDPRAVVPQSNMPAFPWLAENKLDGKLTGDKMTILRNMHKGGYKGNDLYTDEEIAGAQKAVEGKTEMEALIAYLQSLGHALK
T1 sequence (Q8EEL8 1-322 partner): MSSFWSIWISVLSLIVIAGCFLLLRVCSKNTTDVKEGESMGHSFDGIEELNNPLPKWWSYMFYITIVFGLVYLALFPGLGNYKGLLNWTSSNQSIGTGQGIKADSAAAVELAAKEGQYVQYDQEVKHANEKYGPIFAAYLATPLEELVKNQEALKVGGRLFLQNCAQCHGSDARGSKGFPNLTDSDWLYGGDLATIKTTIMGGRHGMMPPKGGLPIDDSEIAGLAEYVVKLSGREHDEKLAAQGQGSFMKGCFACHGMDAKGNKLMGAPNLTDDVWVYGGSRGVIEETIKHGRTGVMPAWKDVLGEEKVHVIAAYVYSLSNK
T1 sequence (Q8EEL7 1-58 partner): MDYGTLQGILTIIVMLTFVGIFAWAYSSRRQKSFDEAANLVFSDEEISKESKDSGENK
T4 sequence (P0ABI8 whole entry): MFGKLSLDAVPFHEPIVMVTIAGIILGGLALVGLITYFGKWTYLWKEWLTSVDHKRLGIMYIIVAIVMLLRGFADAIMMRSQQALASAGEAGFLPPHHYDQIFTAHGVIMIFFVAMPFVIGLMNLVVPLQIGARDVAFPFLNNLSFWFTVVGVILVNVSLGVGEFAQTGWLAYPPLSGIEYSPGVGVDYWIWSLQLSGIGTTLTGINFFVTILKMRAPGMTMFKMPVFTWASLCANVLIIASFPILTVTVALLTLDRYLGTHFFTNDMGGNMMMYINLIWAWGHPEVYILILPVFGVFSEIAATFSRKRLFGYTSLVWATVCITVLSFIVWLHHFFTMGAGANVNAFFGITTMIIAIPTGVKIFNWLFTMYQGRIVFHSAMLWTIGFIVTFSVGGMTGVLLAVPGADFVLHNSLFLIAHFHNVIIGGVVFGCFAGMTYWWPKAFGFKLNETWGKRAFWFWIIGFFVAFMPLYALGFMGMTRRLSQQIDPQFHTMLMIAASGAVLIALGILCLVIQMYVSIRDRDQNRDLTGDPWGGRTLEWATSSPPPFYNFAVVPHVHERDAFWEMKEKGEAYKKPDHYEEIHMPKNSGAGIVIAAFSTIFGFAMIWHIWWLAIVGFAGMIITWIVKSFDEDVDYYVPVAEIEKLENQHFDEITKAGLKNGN
T4 sequence (P0ABJ1 25-315 partner): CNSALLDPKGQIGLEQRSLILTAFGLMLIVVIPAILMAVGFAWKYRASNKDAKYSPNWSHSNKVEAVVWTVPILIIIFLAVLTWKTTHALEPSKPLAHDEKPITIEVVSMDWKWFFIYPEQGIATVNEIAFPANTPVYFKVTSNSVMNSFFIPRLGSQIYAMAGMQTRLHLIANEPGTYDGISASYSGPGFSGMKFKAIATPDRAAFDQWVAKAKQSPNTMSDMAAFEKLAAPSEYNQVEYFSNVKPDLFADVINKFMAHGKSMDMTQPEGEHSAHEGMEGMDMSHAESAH
T4 sequence (P0ABJ3 whole entry partner): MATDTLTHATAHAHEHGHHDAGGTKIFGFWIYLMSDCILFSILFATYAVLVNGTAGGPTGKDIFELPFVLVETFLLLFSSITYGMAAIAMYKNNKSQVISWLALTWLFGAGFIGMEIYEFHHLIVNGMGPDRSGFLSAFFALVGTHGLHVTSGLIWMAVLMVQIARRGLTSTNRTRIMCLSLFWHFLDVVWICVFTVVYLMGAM
T4 sequence (P0ABJ6 whole entry partner): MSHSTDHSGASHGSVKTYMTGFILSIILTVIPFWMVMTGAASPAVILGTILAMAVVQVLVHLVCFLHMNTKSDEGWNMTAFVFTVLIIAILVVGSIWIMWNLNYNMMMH

O=NO [nitrite]
IC50 [1]: 57 ± 6 µM | IC50 [2]: 207 ± 18 µM | IC50 [3]: 137 ± 15 µM | IC50 [4]: 120 ± 13 µM
